# Results from PubChem BioAssay AID608 (Sanford-Burnham Center for Chemical Genomics, 2007).
# Active and inactive are the calls of the source. The rule behind the calls is not given here.
# Target: Peptidyl-prolyl cis-trans isomerase FKBP1A (Homo sapiens) (UniProt P62942)
# Test: FKBP12 binders, biophysical, NMR detection (AID 608)
# Conditions: NMR binding, purified FKBP12
# Peptidyl-prolyl cis-trans isomerase FKBP1A (Homo sapiens), sequence (P62942 whole entry, looked up): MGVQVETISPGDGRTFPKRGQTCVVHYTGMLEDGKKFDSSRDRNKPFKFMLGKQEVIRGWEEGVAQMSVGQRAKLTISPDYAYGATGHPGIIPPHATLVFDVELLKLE
row,SMILES,Kd
1,C[C@@H]1CC[C@@]2(OC1)OC1C(O)C3C4CC[C@H]5C[C@H](O[C@@H]6O[C@H](CO)[C@H](O[C@@H]7O[C@H](CO)[C@@H](O)[C@H](O[C@@H]8OC[C@@H](O)[C@H](O)[C@H]8O)[C@H]7O[C@@H]7O[C@H](CO)[C@H](O)[C@H](O[C@@H]8O[C@H](CO)[C@@H](O)[C@H](O)[C@H]8O)[C@H]7O)[C@H](O)[C@H]6O)[C@H](O)C[C@]5(C)C4CC[C@]3(C)C1[C@@H]2C (stereo partly drawn),> 4 mM (inactive)
2,O=C(O)C1CC(C2CCCCN2)CN2CCCCC12 (stereo not drawn),> 4 mM (inactive)
3,CNC(=O)Oc1ccc2c(c1)[C@]1(C)CCN(C)[C@@H]1N2C,> 4 mM (inactive)
4,CNC(=S)Nc1ccc(OC)cc1C,> 4 mM (inactive)
5,O=C(c1ccc(F)cc1)C1CCNCC1,> 4 mM (inactive)
6,CC1C[C@H]2CC(=O)[C@H]3CCCN4CCC[C@H]2[C@]34C1 (stereo partly drawn),> 4 mM (inactive)
7,COc1cc2c(c(OC)c1OC)-c1ccc(OC)c(=O)cc1[C@@H](NC(C)=O)CC2,> 4 mM (inactive)
8,CC(C)=CCC[C@](C)(O)C1CC=C(C)CC1 (stereo partly drawn),> 4 mM (inactive)
9,C[C@@H]1C(=O)OC2[C@H](O)C34[C@@H]5OC(=O)[C@@]3(O[C@@H]3OC(=O)[C@H](O)[C@@]34[C@H](C(C)(C)C)[C@H]5O)[C@]21O (stereo partly drawn),> 4 mM (inactive)
10,COC(=O)[C@@]1(C)CCC[C@]2(C)c3ccc(O)c(C(C)C)c3CCC12 (stereo partly drawn),> 4 mM (inactive)
11,COC(=O)C[C@H]1C2(C)CC34OC5(C)O[C@@]6([C@H](OC(C)=O)C(OC(C)=O)[C@]7(C)C(/C(=C(/O)C(C)C)C(=O)O[C@H]7c7ccoc7)[C@@]6(O5)[C@H](OC(C)=O)[C@@]3(O)C2OC(=O)C(C)C)[C@]14C (stereo partly drawn),> 4 mM (inactive)
12,COc1ccc([C@H]2COc3c(ccc(O)c3OC)C2)c(OC)c1O,> 4 mM (inactive)
13,CC1(C)C(=O)C=C[C@@]2(C)C1C[C@@H](O)[C@]1(C)C2CC[C@@]2(C)[C@H](c3ccoc3)OC(=O)[C@H]3O[C@]321 (stereo partly drawn),> 4 mM (inactive)
14,O=C(O)C1CCN(S(=O)(=O)c2cccs2)CC1,> 4 mM (inactive)
15,O=C(/C=C/c1ccc(O)cc1)c1ccc(O)cc1O,> 4 mM (inactive)
16,C[C@@H]1CC[C@@]2(NC1)O[C@H]1C[C@H]3C4CC=C5C[C@@H](O)CC[C@]5(C)C4CC[C@]3(C)C1[C@@H]2C (stereo partly drawn),> 4 mM (inactive)
17,CSc1ncnc2nc[nH]c12,> 4 mM (inactive)
18,CCC(C)C(=O)O[C@H]1[C@H](O)C2C(CN3CC(C)CCC3[C@@]2(C)O)C2C[C@]34O[C@]5(O)C(OC(=O)C(C)(O)CC)CC[C@@]3(C)C5C(OC(C)=O)[C@@H](OC(C)=O)C4[C@@]21O (stereo partly drawn),> 4 mM (inactive)
19,Cc1cn(C(=O)CN2C(=O)c3ccccc3C2=O)c(C)n1,> 4 mM (inactive)
20,CCOC(=O)c1cc(C)n(C)n1,> 4 mM (inactive)
21,O=C(NCN1CCOCC1)c1cccnc1,> 4 mM (inactive)
22,COc1cc(O)c2c(c1)C(=O)c1cc(C)cc(O)c1C2=O,> 4 mM (inactive)
23,COc1ccc2c(CC(=O)O)coc2c1,> 4 mM (inactive)
24,O=C1NC(=O)C(C(C[N+](=O)[O-])c2ccc(O)cc2)C(=O)N1 (stereo not drawn),> 4 mM (inactive)
25,CC1(C)C2CC[C@]3(C)C(C(=O)C=C4[C@H]5C[C@@](C)(C(=O)O)CC[C@]5(C)CC[C@]43C)[C@@]2(C)CC[C@@H]1O (stereo partly drawn),> 4 mM (inactive)
26,Cn1c(SCC(N)=O)nnc1-c1cccnc1,> 4 mM (inactive)
27,CC(=O)c1cccc(NC(=O)N2CCc3ccccc3C2)c1,> 4 mM (inactive)

row,SMILES,Kd
1,NNC(=O)c1ccccc1-n1cccc1,> 4 mM (inactive)
2,O=C(NCCCSc1ncccn1)Nc1ncccn1,> 4 mM (inactive)
3,COc1ccc2c(c1)O[C@@H]1COc3cc(OC)c(OC)cc3[C@@H]1C2=O,> 4 mM (inactive)
4,O=C(c1ccco1)N1CCNCC1,> 4 mM (inactive)
5,Cc1onc(-c2ccccc2)c1C(=O)O,> 4 mM (inactive)
6,C=CCNC(=O)c1nn2cccnc2c1Cl,> 4 mM (inactive)
7,CC(=O)Nc1ccn(-c2ccccc2)n1,> 4 mM (inactive)
8,O=C(O)CCNc1n[nH]c(=O)[nH]c1=O,> 4 mM (inactive)
9,Cc1cc(=O)n2[nH]c(COc3ccccc3)nc2n1,> 4 mM (inactive)
10,O=c1nc(NCc2ccco2)sc2ncccc12,> 4 mM (inactive)
11,CC(=O)CC1(O)C(=O)Nc2ccccc21 (stereo not drawn),> 4 mM (inactive)
12,c1ccc(-c2nnc(CNCc3ccco3)o2)cc1,> 4 mM (inactive)
13,O=C(O)c1ccc2nccnc2c1,> 4 mM (inactive)
14,CC(=O)O[C@@H]1CC2C(C)(C)CCC(=O)[C@]2(C)C2CC[C@@]3(C)[C@H](c4ccoc4)OC(=O)C4OC43[C@@]21C (stereo partly drawn),> 4 mM (inactive)
15,NCc1ccc(N2CCOCC2)cc1,> 4 mM (inactive)
16,Cn1c(=O)n(C)c2cc(C(N)=O)ccc21,> 4 mM (inactive)
17,O=C(O)C1=CCCNC1,> 4 mM (inactive)
18,CNc1nc(SC)nc(N2CCOCC2)n1,> 4 mM (inactive)
19,Nc1ncnc2c1ncn2CCN1CCOCC1,> 4 mM (inactive)
20,COC1C(O)C(O[C@H]2CC[C@]3(C=O)C4C(CC[C@]3(O)C2)[C@@]2(O)CC[C@H](C3=CC(=O)OC3)[C@@]2(C)C[C@H]4OC(C)=O)OC(C)C1OC(C)=O (stereo partly drawn),> 4 mM (inactive)
21,Cc1cc(C)n(S(=O)(=O)c2ccc(C(C)(C)C)cc2)n1,> 4 mM (inactive)
22,CN(C)C(=O)CSc1nc2ccccc2c(=O)[nH]1,> 4 mM (inactive)
23,O=C1C=CC(=O)N1c1ccc(N2CCOCC2)cc1,> 4 mM (inactive)
24,COc1ccc2c(c1)OCc1c-2oc2cc(OC)ccc12,> 4 mM (inactive)
25,COc1cc(O)cc(/C=C/c2ccccc2)c1,> 4 mM (inactive)
26,COc1cccc(/C=C2/SC(N)=NC2=O)c1,> 4 mM (inactive)
